The source made the active and inactive calls. The rule behind the calls is not given here.
How the values were obtained:
Staphylococcus aureus [1] = experiment: Antibacterial activity against Staphylococcus aureus ATCC 25923 assessed as growth inhibition at 0.125 mg/m by microbroth dilution method relative to control; type: functional
Pseudomonas aeruginosa [2] = experiment: Antibacterial activity against Pseudomonas aeruginosa ATCC 15442 assessed as growth inhibition at 0.125 mg/ml by microbroth dilution method relative to control; type: functional; conditions: read-out: GI
HCT-116 [3] = experiment: Cytotoxicity against human HCT116 cells assessed as reduction in cell viability by MTT assay; type: functional, cell-based
Pseudomonas aeruginosa [4] = experiment: Antibacterial activity against Pseudomonas aeruginosa ATCC 15442 by microbroth dilution method; type: functional, organism-based
Staphylococcus aureus [5] = experiment: Antibacterial activity against multi-resistant Staphylococcus aureus ATCC BAA-44 by microbroth dilution method; type: functional, organism-based
Staphylococcus aureus [6] = experiment: Antibacterial activity against Staphylococcus aureus ATCC 25923 by microbroth dilution method; type: functional, organism-based
[7] = Metal chelating activity of the compound assessed as Fe2+-compound complex formation by measuring absorbance at > 50 uM in presence of ferrozine by spectrophotometric method
[8] = Antioxidant activity assessed as DPPH radical scavenging activity at > 50 uM and measure every 10 mins for 30 mins subsequently measured every 30 mins for 4 hrs by spectrophotometric method; type: functional
Staphylococcus aureus [9] = experiment: Antibacterial activity against methicillin-resistant Staphylococcus aureus ATCC BAA-41 by microbroth dilution method; type: functional, organism-based
[10] = Stability of compound in methanol; type: physicochemical
HCT-116 [11] = experiment: Cytotoxicity against human HCT116 cells assessed as assessed as growth inhibition at 200 uM by MTT assay relative to control; type: functional; conditions: read-out: GI
Staphylococcus aureus [12] = experiment: Antibacterial activity against methicillin-resistant Staphylococcus aureus ATCC BAA-41 assessed as growth inhibition at 0.125 mg/m by microbroth dilution method relative to control; type: functional

SMILES	Activity (HCT-116 [3])	Activity (Pseudomonas aeruginosa [4])	Activity (Staphylococcus aureus [5])	Activity (Staphylococcus aureus [6])	Activity [7]	Activity [8]	Activity (Staphylococcus aureus [9])	also measured
NC[C@H]1O[C@H](O[C@H]2[C@H](O)[C@@H](O[C@H]3O[C@H](CO)[C@@H](O)[C@H](N)[C@H]3O)[C@H](N)C[C@@H]2N)[C@H](O)[C@@H](O)[C@@H]1O [KANAMYCIN]								growth inhibition (GI) (Staphylococcus aureus [1]): 100%; inhibition of growth at 125 µg/mL (Pseudomonas aeruginosa [2]): 100%
COc1cc(O)cc(CC(C)=O)c1C[C@@H](C)C(=O)[C@@H](C)C(=O)/C(C)=C/C(C)=C/[C@H](C)[C@H](C)O	inactive	inactive	inactive	inactive	inactive	inactive	inactive	
COc1cc(O)cc(CC(C)=O)c1C[C@@H](C)C(=O)[C@H](C)C(=O)/C(C)=C/C(C)=C/[C@H](C)[C@H](C)O	inactive	inactive	inactive	inactive	inactive	inactive	inactive	
C=C[C@]1(C)C=C2C(=O)[C@]3(O)OC(=O)[C@@]4(CCCC(C)(C)[C@@H]43)[C@H]2CC1								Stability [10]: Unstable; IC50 (HCT-116 [3]): 32.7 µM; IC50 (Pseudomonas aeruginosa [4]): > 100 µM; IC50 (Staphylococcus aureus [6]): 71.6 µM; IC50 (Staphylococcus aureus [9]): 77.8 µM
CC(=O)Cc1cc(O)cc2c1CC(C)C(O)(C(C)C(=O)/C(C)=C/C(C)=C/C(C)C(C)O)O2 (configuration not stated)	inactive	inactive	inactive	inactive	inactive	inactive	inactive	
CC(=O)Cc1cc(O)cc(O)c1CC(C)C(=O)C(C)C(=O)/C(C)=C/C(C)=C/C(C)C(C)O (configuration not stated)	inactive	inactive	inactive	inactive	inactive	inactive	inactive	
COc1cc([C@@H]2c3cc4c(cc3[C@@H](O[C@@H]3O[C@@H]5CO[C@@H](C)O[C@H]5[C@H](O)[C@H]3O)[C@H]3COC(=O)[C@H]23)OCO4)cc(OC)c1O [ETOPOSIDE]								inhibition of growth at 200 µM (HCT-116 [11]): 82.8%
C=C[C@]1(C)C=C2C(=O)[C@@]3(O)OC(=O)[C@@]4(CCCC(C)(C)[C@H]34)[C@@]2(O)CC1 [SPHAEROPSIDIN A]								Stability [10]: Stable; IC50 (HCT-116 [3]): 4.9 µM; IC50 (Pseudomonas aeruginosa [4]): > 100 µM; IC50 (Staphylococcus aureus [6]): 32.6 µM; IC50 (Staphylococcus aureus [9]): 35.3 µM
CN[C@H](CC(C)C)C(=O)N[C@H]1C(=O)N[C@@H](CC(N)=O)C(=O)N[C@H]2C(=O)N[C@H]3C(=O)N[C@H](C(=O)N[C@H](C(=O)O)c4cc(O)cc(O)c4-c4cc3ccc4O)[C@H](O)c3ccc(c(Cl)c3)Oc3cc2cc(c3O[C@@H]2O[C@H](CO)[C@@H](O)[C@H](O)[C@H]2O[C@H]2C[C@](C)(N)[C@H](O)[C@H](C)O2)Oc2ccc(cc2Cl)[C@H]1O [VANCOMYCIN]								growth inhibition (GI) (Staphylococcus aureus [12]): 100%

Source: ChEMBL document CHEMBL4414597, “Polyketides from Marine-Derived Aspergillus porosus: Challenges and Opportunities for Determining Absolute Configuration” (J Nat Prod, 2019)
